{
  "source": "paper PMC3079564",
  "about": "(Chemical biology & drug design, 2011)",
  "origin": "cited, not measured here",
  "key": {"[1]": {"tested_on": "recombinant HIV-1 carrying HIV-1YU2 envelope glycoproteins on Cf2Th-CCR5 cells lacking CD4"}, "[2]": {"tested_on": "gp120 from the YU2 strain"}},
  "data": [
    {"smiles": "CC1(C)CC(NC(=O)C(=O)Nc2ccc(Cl)cc2)CC(C)(C)N1", "note": "[NBD-556]", "values": [
      {"measurement": "enhancement of viral infectivity in CD4 negative cells", "setting": "[1]", "value": "three orders of magnitude"},
      {"measurement": "-TΔS of binding to gp120", "setting": "[2]; 25 °C", "value": 17.1, "unit": "kcal/mol"},
      {"measurement": "ΔH of binding to gp120", "setting": "[2]; 25 °C", "value": -24.5, "unit": "kcal/mol"},
      {"measurement": "measured heat capacity change on binding to gp120", "setting": "[2]; NBD-556", "value": "-1.0 kcal/(K × mol)"}
    ]}
  ]
}
